Reference: article PMC3325286, “Structural and Functional Diversity of Acidic Scorpion Potassium Channel Toxins” (PLoS ONE, 2012)
Positions of bridges follow the written chain, without caps; N, C: chain ends. Residues, ends and D or L forms follow the SMILES beside them. No end group written: not given here.

Legend:
Kv1.3 channel = test: Patch-clamp inhibition of Kv1.3 channel current in transfected HEK293 cells; type: cell-based
KCNQ1 channel [1] = molecular target: T1, KCNQ1 channel (Homo sapiens, UniProt P15382+P51787); details: for Effect on KCNQ1 channel (in words): 10 µM concentration
KCNQ1 channel [2] = molecular target: T1, KCNQ1 channel; test: cell-based; details: for inhibition at 10 µM: HEK293, read-out: Inhibition of KCNQ1 channel current; for inhibition at 1 µM: HEK293, read-out: Inhibition of KCNQ1 channel current, ImKTx104 and mutants
BKCa channel = test: Patch-clamp inhibition of BKCa channel current in transfected HEK293 cells; type: cell-based; details: 1 µM concentration; n>3
TRPV1 channel = test: Patch-clamp inhibition of TRPV1 channel current in transfected HEK293 cells; type: cell-based; details: 1 µM concentration; n>3
SKCa channel = test: Patch-clamp inhibition of SKCa channel current in transfected HEK293 cells; type: cell-based; details: 1 µM concentration; n>3
Kv1.2 channel = test: Patch-clamp inhibition of Kv1.2 channel current in transfected HEK293 cells; type: cell-based; details: 1 µM ImKTx104 (Fig. S2); n>3
Kv1.1 channel = test: Patch-clamp inhibition of Kv1.1 channel current in transfected HEK293 cells; type: cell-based; details: 1 µM ImKTx104 (Fig. S2); n>3

T1 sequence (P51787 whole entry, looked up): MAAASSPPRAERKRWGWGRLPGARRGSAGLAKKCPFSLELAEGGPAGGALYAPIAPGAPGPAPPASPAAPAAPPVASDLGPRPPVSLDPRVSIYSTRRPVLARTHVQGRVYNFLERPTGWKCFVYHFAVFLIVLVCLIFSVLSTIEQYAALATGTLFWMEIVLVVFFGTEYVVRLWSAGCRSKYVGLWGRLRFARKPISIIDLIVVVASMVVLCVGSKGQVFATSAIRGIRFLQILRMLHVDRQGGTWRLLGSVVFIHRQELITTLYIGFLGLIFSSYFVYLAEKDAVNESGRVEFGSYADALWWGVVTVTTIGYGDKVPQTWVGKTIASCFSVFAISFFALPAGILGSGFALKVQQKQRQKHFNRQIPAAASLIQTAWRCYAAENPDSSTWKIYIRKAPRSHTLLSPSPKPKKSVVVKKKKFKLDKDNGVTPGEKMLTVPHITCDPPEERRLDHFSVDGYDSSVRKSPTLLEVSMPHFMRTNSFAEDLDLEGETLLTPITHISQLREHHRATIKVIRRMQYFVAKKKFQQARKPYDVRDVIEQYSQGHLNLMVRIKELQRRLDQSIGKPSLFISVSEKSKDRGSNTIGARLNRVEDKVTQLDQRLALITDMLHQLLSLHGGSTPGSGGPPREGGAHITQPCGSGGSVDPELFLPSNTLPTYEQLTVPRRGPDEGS

With `CC[C@H](C)[C@@H]1NC(=O)[C@H](C)NC(=O)[C@H](CCC(=O)O)NC(=O)[C@H](CO)NC(=O)[C@H]([C@@H](C)CC)NC(=O)[C@@H]2CCCN2C(=O)[C@@H](NC(=O)[C@H](CC(=O)O)NC(=O)CNC(=O)[C@@H](N)CCC(=O)O)CSSC[C@@H]2NC(=O)[C@H](C(C)C)NC(=O)[C@H](CCC(=O)O)NC(=O)[C@H](C(C)C)NC(=O)[C@H](CCCCN)NC(=O)[C@H](CCC(=O)O)NC(=O)[C@H](CCCCN)NC(=O)[C@@H]3CSSC[C@@H](C(=O)N[C@@H](CO)C(=O)NCC(=O)O)NC(=O)[C@H](CCCCN)NC(=O)[C@H](CSSC[C@H](NC(=O)[C@H](CCCCN)NC1=O)C(=O)N[C@@H](C(C)C)C(=O)N[C@@H](CCC(=O)O)C(=O)N[C@@H](CCCCN)C(=O)N3)NC(=O)[C@H](C(C)C)NC(=O)CNC(=O)[C@@H]1CCCN1C(=O)[C@H](CCC(=O)O)NC2=O` [LmKTx2] (H-EGDCPISEAIKCVEKCKEKVEVCEPGVCKCSG-OH; disulfide 4-23, 12-28, 16-30) the “Effect on Kv1.3 channel (in words)” value (Kv1.3 channel) was “minor effect”, the “Effect on KCNQ1 channel (in words)” value (KCNQ1 channel [1]) was “only weakly inhibited” and the inhibition at 10 µM (KCNQ1 channel [2]) was 27.7%.

“EDKLKCTKTDDCAKYCSQFTDVHPACLGGYCECLRWEGGISS (disulfide 6-26, 12-31, 16-33) [StKTx23]” was tested, and the “Effect on Kv1.3 channel (in words)” value (Kv1.3 channel) was “effectively blocked”, the “Effect on KCNQ1 channel (in words)” value (KCNQ1 channel [1]) was “did not inhibit” and the inhibition at 10 µM (KCNQ1 channel [2]) was 4.21%.

`CC[C@H](C)[C@@H]1NC(=O)[C@H]([C@@H](C)O)NC(=O)[C@H](CC(=O)O)NC(=O)[C@H](Cc2ccc(O)cc2)NC(=O)[C@@H]2CSSC[C@@H](C(=O)N[C@@H](CCSC)C(=O)O)NC(=O)[C@H](CCCCN)NC(=O)[C@@H]3CSSC[C@H](NC(=O)[C@H](CC(=O)O)NC(=O)[C@H](CCC(=O)O)NC(=O)[C@H](Cc4c[nH]cn4)NC(=O)[C@H]([C@@H](C)O)NC(=O)[C@H](C(C)C)NC(=O)[C@@H](NC(=O)[C@H](C)N)CSSC[C@H](NC(=O)[C@H]([C@@H](C)O)NC(=O)CNC1=O)C(=O)N[C@@H](C(C)C)C(=O)N[C@@H](CC(=O)O)C(=O)NCC(=O)N[C@@H](C)C(=O)N3)C(=O)N[C@@H]([C@@H](C)O)C(=O)N[C@@H](CC(C)C)C(=O)N[C@@H](CC(C)C)C(=O)N2` [ImKTX104-K23A] (H-ACVTHEDCTLLCYDTIGTCVDGACKCM-OH; disulfide 2-19, 8-24, 12-26) showed an inhibition at 1 µM (KCNQ1 channel [2]) of 15.5%.

With `CC[C@H](C)[C@@H]1NC(=O)[C@@H](NC(=O)[C@H](C)NC(=O)[C@H](CC(N)=O)NC(=O)CN)CSSC[C@@H](C(=O)N[C@@H](CC(=O)O)C(=O)N[C@@H](CCCCN)C(=O)O)NC(=O)[C@@H]2CCCN2C(=O)[C@H](CCCCN)NC(=O)[C@H](CC(=O)O)NC(=O)[C@@H]2CSSC[C@H](NC(=O)[C@H](C(C)C)NC(=O)[C@H](CCC(=O)O)NC1=O)C(=O)N[C@@H](CC(C)C)C(=O)N[C@@H](CCC(N)=O)C(=O)N[C@@H](Cc1c[nH]cn1)C(=O)N[C@@H]([C@@H](C)O)C(=O)NCC(=O)N[C@@H](CC(N)=O)C(=O)N1CCC[C@H]1C(=O)N[C@@H](C)C(=O)N[C@@H](CCC(=O)O)C(=O)N2` [HeTx204] (H-GNACIEVCLQHTGNPAECDKPCDK-OH; disulfide 4-22, 8-18) the “Effect on Kv1.3 channel (in words)” value (Kv1.3 channel) was “effectively blocked”, the “Effect on BKCa channel (in words)” value (BKCa channel) was “negligible effects” and the “Effect on TRPV1 channel (in words)” value (TRPV1 channel) was “negligible effects”. The “Washout of toxin from KCNQ1 channel (in words)” value (KCNQ1 channel [1]; 10 µM) was “could not be removed”, the “Effect on KCNQ1 channel (in words)” value (KCNQ1 channel [1]) was “effectively blocked” and the inhibition at 10 µM (KCNQ1 channel [2]) was 44.9%. The “Effect on SKCa channel (in words)” value (SKCa channel) was “negligible effects”.

In the case of `CC[C@H](C)[C@@H]1NC(=O)[C@H]([C@@H](C)O)NC(=O)[C@H](CC(=O)O)NC(=O)[C@H](Cc2ccc(O)cc2)NC(=O)[C@@H]2CSSC[C@@H](C(=O)N[C@@H](CCSC)C(=O)O)NC(=O)[C@H](CCCCN)NC(=O)[C@@H]3CSSC[C@H](NC(=O)[C@H](CC(=O)O)NC(=O)[C@H](CCC(=O)O)NC(=O)[C@H](Cc4c[nH]cn4)NC(=O)[C@H]([C@@H](C)O)NC(=O)[C@H](C(C)C)NC(=O)[C@@H](NC(=O)[C@H](C)N)CSSC[C@H](NC(=O)[C@H]([C@@H](C)O)NC(=O)CNC1=O)C(=O)N[C@@H](C(C)C)C(=O)N[C@@H](CC(=O)O)C(=O)NCC(=O)N[C@@H](CCCCN)C(=O)N3)C(=O)N[C@@H]([C@@H](C)O)C(=O)N[C@@H](CC(C)C)C(=O)N[C@@H](CC(C)C)C(=O)N2` [ImKTx104] (H-ACVTHEDCTLLCYDTIGTCVDGKCKCM-OH; disulfide 2-19, 8-24, 12-26), the “Effect on Kv1.2 channel (in words)” value (Kv1.2 channel) is reported as “no effect”, the “Effect on Kv1.3 channel (in words)” value (Kv1.3 channel) is reported as “minor effect” and the “Effect on BKCa channel (in words)” value (BKCa channel) is reported as “negligible effects”. For the same molecule, the “Effect on TRPV1 channel (in words)” value (TRPV1 channel) was “negligible effects”, the “Effect on KCNQ1 channel (in words)” value (KCNQ1 channel [1]) was “effectively blocked” and the “τoff (time constant of washing off process), KCNQ1 channel current” value (KCNQ1 channel [1]; measured at 10 µM) was 11.73 s. The “τon (time constant of binding process), KCNQ1 channel current” value (KCNQ1 channel [1]; measured at 10 µM) was 81.32 s, the inhibition at 10 µM (KCNQ1 channel [2]) was 41.7% and the inhibition at 1 µM (KCNQ1 channel [2]) was 27.5%. The “Effect on Kv1.1 channel (in words)” value (Kv1.1 channel) was “no effect” and the “Effect on SKCa channel (in words)” value (SKCa channel) was “negligible effects”.

In the case of `CC[C@H](C)[C@@H]1NC(=O)[C@H]([C@@H](C)O)NC(=O)[C@H](C)NC(=O)[C@H](Cc2ccc(O)cc2)NC(=O)[C@@H]2CSSC[C@@H](C(=O)N[C@@H](CCSC)C(=O)O)NC(=O)[C@H](CCCCN)NC(=O)[C@@H]3CSSC[C@H](NC(=O)[C@H](CC(=O)O)NC(=O)[C@H](CCC(=O)O)NC(=O)[C@H](Cc4c[nH]cn4)NC(=O)[C@H]([C@@H](C)O)NC(=O)[C@H](C(C)C)NC(=O)[C@@H](NC(=O)[C@H](C)N)CSSC[C@H](NC(=O)[C@H]([C@@H](C)O)NC(=O)CNC1=O)C(=O)N[C@@H](C(C)C)C(=O)N[C@@H](CC(=O)O)C(=O)NCC(=O)N[C@@H](CCCCN)C(=O)N3)C(=O)N[C@@H]([C@@H](C)O)C(=O)N[C@@H](CC(C)C)C(=O)N[C@@H](CC(C)C)C(=O)N2` [ImKTX104-D14A] (H-ACVTHEDCTLLCYATIGTCVDGKCKCM-OH; disulfide 2-19, 8-24, 12-26), the inhibition at 1 µM (KCNQ1 channel [2]) is reported as 25.6%.

`CC[C@H](C)[C@@H]1NC(=O)[C@@H](NC(=O)[C@H](C)NC(=O)[C@H](CC(N)=O)NC(=O)CN)CSSC[C@@H](C(=O)N[C@@H](CC(=O)O)C(=O)N[C@@H](CCCCN)C(=O)O)NC(=O)[C@H](C)NC(=O)[C@H](CCCCN)NC(=O)[C@H](CC(=O)O)NC(=O)[C@@H]2CSSC[C@H](NC(=O)[C@H](C(C)C)NC(=O)[C@H](CCC(=O)O)NC1=O)C(=O)N[C@@H](CC(C)C)C(=O)N[C@@H](CCC(N)=O)C(=O)N[C@@H](Cc1c[nH]cn1)C(=O)N[C@@H]([C@@H](C)O)C(=O)NCC(=O)N[C@@H](CC(N)=O)C(=O)N1CCC[C@H]1C(=O)N[C@@H](C)C(=O)N[C@@H](CCC(=O)O)C(=O)N2` [HeTx203] (H-GNACIEVCLQHTGNPAECDKACDK-OH; disulfide 4-22, 8-18) was tested, and the “Effect on KCNQ1 channel (in words)” value (KCNQ1 channel [1]) was “only weakly inhibited” and the inhibition at 10 µM (KCNQ1 channel [2]) was 17.8%.

Work on `CC[C@H](C)[C@@H]1NC(=O)[C@H]([C@@H](C)O)NC(=O)[C@H](CC(=O)O)NC(=O)[C@H](Cc2ccc(O)cc2)NC(=O)[C@@H]2CSSC[C@@H](C(=O)N[C@@H](CCSC)C(=O)O)NC(=O)[C@H](C)NC(=O)[C@@H]3CSSC[C@H](NC(=O)[C@H](CC(=O)O)NC(=O)[C@H](CCC(=O)O)NC(=O)[C@H](Cc4c[nH]cn4)NC(=O)[C@H]([C@@H](C)O)NC(=O)[C@H](C(C)C)NC(=O)[C@@H](NC(=O)[C@H](C)N)CSSC[C@H](NC(=O)[C@H]([C@@H](C)O)NC(=O)CNC1=O)C(=O)N[C@@H](C(C)C)C(=O)N[C@@H](CC(=O)O)C(=O)NCC(=O)N[C@@H](CCCCN)C(=O)N3)C(=O)N[C@@H]([C@@H](C)O)C(=O)N[C@@H](CC(C)C)C(=O)N[C@@H](CC(C)C)C(=O)N2` [ImKTX104-K25A] (H-ACVTHEDCTLLCYDTIGTCVDGKCACM-OH; disulfide 2-19, 8-24, 12-26) yielded an inhibition at 1 µM (KCNQ1 channel [2]) of 21.4%.

In the case of `CSCC[C@@H]1NC(=O)[C@@H]2CCCN2C(=O)[C@@H]2CSSC[C@@H]3NC(=O)[C@H](C(C)C)NC(=O)CNC(=O)[C@H](CC(=O)O)NC(=O)[C@H](CC(=O)O)NC(=O)[C@H](CSSC[C@H](NC(=O)CNC(=O)[C@@H](N)C(C)C)C(=O)N[C@@H](CCC(=O)O)C(=O)N[C@@H](CCC(=O)O)C(=O)N2)NC(=O)[C@H]([C@@H](C)O)NC(=O)[C@@H]2CCCN2C(=O)[C@H](CCCCN)NC(=O)[C@H](C)NC(=O)[C@H](CC(N)=O)NC(=O)[C@H](CCCCN)NC(=O)CNC(=O)[C@H](CCCCN)NC(=O)[C@H](CSSC[C@@H](C(=O)N[C@@H](CC(N)=O)C(=O)N[C@H](C(=O)O)C(C)C)NC(=O)[C@H](CC(N)=O)NC3=O)NC(=O)[C@H](Cc2c[nH]cn2)NC1=O` [BmP02, reference compound] (H-VGCEECPMHCKGKNAKPTCDDGVCNCNV-OH; disulfide 3-19, 6-24, 10-26), the “Effect on KCNQ1 channel (in words)” value (KCNQ1 channel [1]) is reported as “only weak inhibitors” and the inhibition at 10 µM (KCNQ1 channel [2]) is reported as 23.3%.
